In US11306063B2, “Heterocyclic naphthoquinones derivatives for use in the treatment of cancers including Cushing disease” (Commissariat a l'Energie Atomique et aux Energies …, priority 2016, dated 2022):

What was measured:
[1] = tested on: BT-549 triple negative breast cancer cells; test: Wounding assay, BT-549; format: cell-based; settings: from 1 μM concentration; mitomycine 2 μg/ml; 24 hours
Method: (§1) In addition the migratory capacity of two additional triple negative breast cancer cells lines: the metastatic MDA-MB231 and BT-549 showing high migratory capacity was analyzed in a classical wound assay.
(§2) BT-549, MDA-MB231 cell lines were issued from the American Type Culture Collection (ATCC). For wounding assays, cells were seeded in 24-well microplates (Culture Insert 21, ref 250210, Ibidi®). […] Cell spreading was then visualized during 24 hours by videomicroscopy (1 acquisition each 30 min). A representative picture of 3 is presented at 0 and 12 hours of drug treatment out. In Graphs, curves represents the empty surface (devoid of cells) between the two cell layers (delimited by using Image J software).

[2] = target: USP2-FL (Homo sapiens, UniProt O75604); test: biochemical
[3] = tested on: chicken embryos; test: Toxicity in the chick embryo model; format: in vivo; settings: each second day at 2 μM or 10 μM; FIG. 4B
Method: The number of dead embryo evaluates the toxicity after 10 days of the treatment as well as the research of abnormality on 22 checkpoints observed on surviving embryos at two concentrations of drugs (i.e. 2 μM and 10 μM). • Head: Size, Closure, Eyes, Ear, Face and Branchial are derivatives, Mobility; • Body: Size, Axis deformation, ventral and dorsal Closures, Caudal formation, Sexual area; • Limbs: Size, Axis morphology, Mobility, • Skin: Appendage formation, Attachment, Blood vessel; • Extra-Embryonic Structures: Vascularisation, Transparency, Attachment, Blood vessel Results

[4] = target: USP8-FL (Homo sapiens, UniProt P40818); test: biochemical
[5] = tested on: EGFR, P-EGFR, Met, P-Akt in HCC827 cells; test: Protein expression by immunoblot, HCC827; format: cell-based, human; settings: 6 hours; dose dependent; FIG. 10
Method: Tubulin (Tub) serve as loading controls. One representative experiment out of two is presented.
Cells were treated by either DMSO (0.5%) or increasing doses of the selected molecules from 1 μM to 10 μM over 6 to 24 hours as indicated. […] Tubulin was detected using anti α-tubulin primary antibody (in-house: the polyclonal Glu-tubulin antibody (L4) is available commercially from Abcys (Paris, France)). HRP-coupled anti-rabbit (#A6154) and anti-mouse (#A4416) secondary antibodies were purchased from Sigma. HRP activity was detected through HRP chemoluminescence detection reagent (Millipore, #WBLUF0100). […] Positive control was Epotoside at 50 μM or 100 μM, a known drug inducing cancerous cell death by apoptosis.

[6] = tested on: p53 in HCT116 cells; test: Protein expression by immunoblot, HCT116; format: cell-based, human; settings: dose dependent; FIG. 7B
Method: Actin or Tubulin (Tub) serve as loading controls. One representative experiment out of three is presented.
(§3) Cells were treated by either DMSO (0.5%) or increasing doses of the selected molecules from 1 μM to 10 μM over 6 to 24 hours as indicated. Cell lysates were analyzed by immunoblotting following standard procedure using primary antibodies from Cell Signaling: anti-total P53 (#9282), anti-phosphoP53 Kit (#9919), anti-cyclinD1 (#2926), anti-FAS (#3189), anti EGFR (#4267), anti-Phospho (tyr1068) EGFR (#2234), anti Met (#4560), anti-Akt (#9272), anti Phospho(Ser473)-Akt (#9271) or anti-Myc (Santa Cruz Technology #Sc-40). Tubulin was detected using anti α-tubulin primary antibody (in-house: the polyclonal Glu-tubulin antibody (L4) is available commercially from Abcys (Paris, France)). HRP-coupled anti-rabbit (#A6154) and anti-mouse (#A4416) secondary antibodies were purchased from Sigma. HRP activity was detected through HRP chemoluminescence detection reagent (Millipore, #WBLUF0100). Apoptotic cell death induction was observed through the observation of PARP cleavage using anti-PARP primary antibodies anti-PARP (46D11) (#9532). Positive control was Epotoside at 50 μM or 100 μM, a known drug inducing cancerous cell death by apoptosis.

[7] = tested on: HCC827 cells; test: Cytotoxicity assay (PrestoBlue cell viability), HCC827; format: cell-based; settings: Homo sapiens, 48 hours treatment
Method: Messa, Messa DX5, HCT116, HEK-293, PC-3, LNCaP, HCC827 and H1975 cell lines are issued from the American Type Culture Collection (ATCC).
For cytotoxicity assays, cells were seeded in 96-well microplates 24 hours before the addition of increasing concentrations of each compound in the culture medium. Cell viability was analyzed 48 hours following addition of each compound through the monitoring of mitochondrial […] activity using PrestoBlue® Cell Viability Reagent (Invitrogen; #A-13261). Paclitaxel was used as a control which is cytotoxic on various cancerous cells although not on chemoresistant MESSA DX5 lineage.

[8] = tested on: MDA-MB231 triple negative breast cancer cells; test: Wounding assay, MDA-MB231; format: cell-based; settings: from 1 μM concentration; mitomycine 2 μg/ml; 24 hours
Method: as §1, §2

[9] = tested on: USP8; settings: increasing concentrations; HEK293T lysate; FIG. 13D
Method: FIG. 13 D: Flag-USP8 constructs were transfected in HEK293T cells for 48 hours using standard protocols. After cell lysis, the whole cell lysate was incubated with HA-Ub-Vs at 1.5 μM during 12 hours. Then the mixture was separated on SDS-page gel and immunoblotted with anti Flag antibodies (to reveal USP8). The upper band corresponds to USP8 linked to HA-Ub-Vs while the lower band corresponds to free USP8. Immunoblot with anti-tubuline antibodies served as internal loading control.

[10] = tested on: CyclinD1 and FAS in PC-3 cells; test: Protein expression by immunoblot, PC-3; format: cell-based, human; settings: dose and time dependent; 6 h or 24 h; FIG. 6
Method: In FIG. 6B and FIG. 6D, LNCaP cells were treated with dihydrotestosterone (DHT) to induce hormonal dependent FAS expression. Actin or Tubulin (Tub) serve as loading controls. One representative experiment out of three is presented.
as §3

[11] = target: T1, USP2^CD (Homo sapiens, UniProt O75604); test: tri-Ub^K63 chains hydrolysis by USP2^CD (western blot); format: biochemical; settings: FIG. 1C, at the indicated concentrations
T1 construct: The purified catalytic domain of USP2 (USP2^CD, in-house purified); His; made in house; host or cells: E. coli BL21 Gold
Method: The degradation of purified lysine 63-linked tree-Ubiquitin chains (triUb^K63) over a 90 minutes period of time was visualized by western blot analysis. […] Enzymatic assay was performed in a HEPES buffer (50 mM pH7.4, 150 mM NaCl, 0.5 mM EDTA, 2% glycerol, 0.2 mg/ml BSA, 5 mMDTT).

Sequence of USP8-FL (P40818 whole entry): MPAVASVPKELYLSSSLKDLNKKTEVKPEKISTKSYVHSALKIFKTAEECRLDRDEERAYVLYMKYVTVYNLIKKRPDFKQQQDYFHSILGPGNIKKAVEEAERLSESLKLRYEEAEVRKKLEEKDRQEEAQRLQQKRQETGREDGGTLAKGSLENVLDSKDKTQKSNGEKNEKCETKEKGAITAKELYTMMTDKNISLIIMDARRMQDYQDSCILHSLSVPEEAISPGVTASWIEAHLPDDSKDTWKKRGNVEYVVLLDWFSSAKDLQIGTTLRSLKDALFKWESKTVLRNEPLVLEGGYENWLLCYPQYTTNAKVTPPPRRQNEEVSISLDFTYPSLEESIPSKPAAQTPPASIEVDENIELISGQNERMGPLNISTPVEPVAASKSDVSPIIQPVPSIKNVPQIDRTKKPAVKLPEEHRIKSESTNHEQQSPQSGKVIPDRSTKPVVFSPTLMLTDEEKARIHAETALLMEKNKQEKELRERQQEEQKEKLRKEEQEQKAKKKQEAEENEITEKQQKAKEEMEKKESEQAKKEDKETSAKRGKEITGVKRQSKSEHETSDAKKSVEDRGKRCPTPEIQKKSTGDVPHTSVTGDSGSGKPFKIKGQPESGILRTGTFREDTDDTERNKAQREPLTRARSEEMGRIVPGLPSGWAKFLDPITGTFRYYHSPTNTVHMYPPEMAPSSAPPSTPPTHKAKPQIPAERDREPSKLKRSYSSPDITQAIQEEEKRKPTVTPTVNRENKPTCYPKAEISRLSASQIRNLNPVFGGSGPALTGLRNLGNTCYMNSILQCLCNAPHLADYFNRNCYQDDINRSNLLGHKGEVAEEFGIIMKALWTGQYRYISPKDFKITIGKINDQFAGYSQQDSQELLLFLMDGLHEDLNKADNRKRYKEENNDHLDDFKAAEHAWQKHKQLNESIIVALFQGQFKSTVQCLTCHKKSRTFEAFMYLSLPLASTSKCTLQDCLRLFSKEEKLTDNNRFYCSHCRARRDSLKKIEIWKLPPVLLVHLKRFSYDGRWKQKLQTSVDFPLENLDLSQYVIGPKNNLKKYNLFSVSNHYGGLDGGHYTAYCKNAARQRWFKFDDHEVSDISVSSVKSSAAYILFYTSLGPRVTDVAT
T1 sequence (O75604 267-599 limits assumed): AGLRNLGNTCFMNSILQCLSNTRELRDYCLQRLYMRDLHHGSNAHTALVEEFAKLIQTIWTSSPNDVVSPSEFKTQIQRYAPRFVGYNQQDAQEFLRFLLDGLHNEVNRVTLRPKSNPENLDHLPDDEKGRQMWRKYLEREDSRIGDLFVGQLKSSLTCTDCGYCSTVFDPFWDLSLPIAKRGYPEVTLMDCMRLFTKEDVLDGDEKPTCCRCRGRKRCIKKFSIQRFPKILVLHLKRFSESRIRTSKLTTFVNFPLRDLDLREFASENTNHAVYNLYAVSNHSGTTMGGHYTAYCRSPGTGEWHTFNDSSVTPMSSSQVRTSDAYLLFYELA
Sequence of USP2-FL (O75604 whole entry): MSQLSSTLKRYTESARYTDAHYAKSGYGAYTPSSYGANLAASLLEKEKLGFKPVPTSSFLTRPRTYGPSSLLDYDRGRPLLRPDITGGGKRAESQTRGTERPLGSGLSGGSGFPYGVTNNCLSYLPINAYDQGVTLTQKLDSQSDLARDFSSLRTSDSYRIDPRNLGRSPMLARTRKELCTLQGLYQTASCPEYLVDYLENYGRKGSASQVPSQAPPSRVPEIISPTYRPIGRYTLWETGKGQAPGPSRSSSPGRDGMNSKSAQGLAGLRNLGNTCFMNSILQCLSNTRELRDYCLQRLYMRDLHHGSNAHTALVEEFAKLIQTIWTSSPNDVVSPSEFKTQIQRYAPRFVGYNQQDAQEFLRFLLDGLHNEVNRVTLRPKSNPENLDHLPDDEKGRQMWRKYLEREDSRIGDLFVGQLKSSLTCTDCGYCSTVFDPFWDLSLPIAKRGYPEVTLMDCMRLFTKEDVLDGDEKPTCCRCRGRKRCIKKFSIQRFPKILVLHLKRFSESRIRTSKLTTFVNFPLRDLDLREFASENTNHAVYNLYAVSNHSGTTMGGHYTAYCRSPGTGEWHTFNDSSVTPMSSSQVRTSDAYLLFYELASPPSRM

inhibition of tri-Ub^K63 chains hydrolysis by USP2^CD [11]	Compound	cell migration in wounding assay, BT-549 [1]	IC50 [2] [nM]	toxicity (death, macroscopic abnormalities) in chick embryo [3]	IC50 [4] [nM]	Akt phosphorylation, HCC827 [5]	EGFR degradation, HCC827 [5]	EGFR phosphorylation, HCC827 [5]	Met degradation, HCC827 [5]	p53 expression, HCT-116 [6]	EC50 [7] [nM]	cell migration in wounding assay, MDA-MB231 [8]	HA-Ub-VS binding to USP8 in the whole cell lysate [9]	expression level of CyclinD1, PC-3 [10]	expression level of FAS, PC-3 [10]
	CCCCS(=O)(=O)Cc1nc2c(nc1CS(=O)(=O)CCCC)C(=O)c1ccccc1C2=O [PCR6236]	prevents triple negative breast cancer cell migration	200	No significant toxicity	< 30	prevents Akt phosphorylation	EGFR and Met degradation	induces EGFR phosphorylation	EGFR and Met degradation	restored high levels of p53 expression	1800	prevents triple negative breast cancer cell migration	decreased HA-Ub-VS binding to USP8	strongly decreased	strongly decreased
full inhibition	CCCCS(=O)(=O)Cc1nc2c(o1)C(=O)c1ccccc1C2=O [PCR9301]														
